Results reported in US20100016394A1, “BIOCIDAL COMPOSITIONS” (priority 2008, published 2010).
Marks after values point to notes of the source that are not given here.

Columns and labels:
mold = experiment: Modified ASTM-G21 mold resistant test on fungicide-infused Kraft paper; assay type: cell-based; conditions: single active infused in Kraft paper; pass = mold resistant rating of 0 or 1; Trichoderma virens omitted from spore inocula
Procedure: In this example unbleached Kraft paper (brown wrapping paper (density 0.0091 g/cm2) is infused with DIMTS, carbendazim (BCM) and chlorothalonil (CTL) over a broad concentration range. In addition, paired combinations as well as all 3 actives combined are also infused into Kraft paper samples. Infusion of fungicide into paper is conducted by first dissolving the technical actives in a volatile solvent followed by addition of 1 mL of a working stock solution onto the surface of the paper to give the appropriate concentration of active(s) in mg/kg paper. The solvent completely saturates the paper. In order to prevent solvent from leaching through paper onto container, the paper is supported with a Viton O-ring. The solvent saturated paper samples are allowed to dry in a chemical fume hood precipitating the fungicides within the paper. Chemical analyses of fungicide actives in the paper samples confirms that this infusion technique produces >90% incorporation efficiency based on target concentrations. Standard mold resistant tests are performed on duplicate sub samples from each paper infusion sample. A modified ASTM-G21 is the standard mold resistant test used for performance evaluation. Synergy indices are calculated for all combinations of actives using a mold resistant rating of 0 or 1 as the passing criteria for performance. Synergy calculations are made according to the following standard equation:
SI=(Ca/CA)+(Cb/CB) 2 combination tests
SI=(Ca/CA)+(Cb/CB)+(Cc/CC) 3 combination tests
Ca is the lowest concentration of component A in combination with other active(s) required to pass test criteria;
CA is the lowest concentration of component A alone required to pass test criteria;
Cb is the lowest concentration of component B in combination with other active(s) required to pass test criteria;
CB is the lowest concentration of component B alone required to pass test criteria;
Cc is the lowest concentration of component C in combination with other active(s) required to pass test criteria; and
CC is the lowest concentration of component C alone required to pass test criteria. […]

[1] = cited from earlier work

Structure (SMILES)	PPM (active), lowest concentration of component alone required to pass test criteria (mold)	Water solubility [1]
COC(=O)Nc1nc2ccccc2[nH]1 [BCM, methyl 2-benzimidazolecarbamate]	1200 PPM	
N#Cc1c(Cl)c(Cl)c(Cl)c(C#N)c1Cl [CTL, 1,3-dicyano-tetrachlorobenzene]	> 1000* PPM	
Cc1ccc(S(=O)(=O)C(I)I)cc1 [DIMTS, diiodomethyltolylsulfone]	4000 PPM	water insoluble
